Activity calls are given as the source filed them. How the calls were made is not given here.
Tested on: CCRIS mutagenicity, Ames/micronucleus/aberration tests
Experiment: CCRIS mutagenicity studies
[1] = Test System: AMES SALMONELLA TYPHIMURIUM, Strain/Indicator: TA98, Metabolic Activation: NONE, Method: PREINCUBATION
[2] = Test System: AMES SALMONELLA TYPHIMURIUM, Strain/Indicator: TA98, Metabolic Activation: NONE, Method: STANDARD PLATE
[3] = Test System: AMES SALMONELLA TYPHIMURIUM, Strain/Indicator: TA100, Metabolic Activation: NONE, Method: PREINCUBATION
[4] = Test System: AMES SALMONELLA TYPHIMURIUM, Strain/Indicator: TA100, Metabolic Activation: NONE, Method: STANDARD PLATE
[5] = Test System: AMES SALMONELLA TYPHIMURIUM, Strain/Indicator: TA1535, Metabolic Activation: NONE, Method: PREINCUBATION
[6] = Test System: AMES SALMONELLA TYPHIMURIUM, Strain/Indicator: TA1537, Metabolic Activation: NONE, Method: PREINCUBATION

Measured: mutagenic call

Clc1ccccc1Cl
inactive: End Point: IN VITRO CHROMOSOMAL ABERRATIONS, Test System: CHO-LB CELLS, Metabolic Activation: NONE inactive; negative | End Point: IN VITRO CHROMOSOMAL ABERRATIONS, Test System: CHO-LB CELLS, Metabolic Activation: RAT, LIVER, S-9, AROCLOR 1254 inactive; negative | Test System: AMES SALMONELLA TYPHIMURIUM, Strain/Indicator: TA98, Metabolic Activation: HAMSTER, LIVER, S-9, AROCLOR 1254, Method: PREINCUBATION inactive; negative | [1] inactive; negative | [2] inactive; negative | Test System: AMES SALMONELLA TYPHIMURIUM, Strain/Indicator: TA98, Metabolic Activation: RAT, LIVER, S-9, AROCLOR 1254, Method: PREINCUBATION inactive; negative | Test System: AMES SALMONELLA TYPHIMURIUM, Strain/Indicator: TA98, Metabolic Activation: RAT, LIVER, S-9, AROCLOR, Method: STANDARD PLATE inactive; negative | Test System: AMES SALMONELLA TYPHIMURIUM, Strain/Indicator: TA100, Metabolic Activation: HAMSTER, LIVER, S-9, AROCLOR 1254, Method: PREINCUBATION inactive; negative | [3] inactive; negative | [4] inactive; negative | Test System: AMES SALMONELLA TYPHIMURIUM, Strain/Indicator: TA100, Metabolic Activation: RAT, LIVER, S-9, AROCLOR 1254, Method: PREINCUBATION inactive; negative | Test System: AMES SALMONELLA TYPHIMURIUM, Strain/Indicator: TA100, Metabolic Activation: RAT, LIVER, S-9, AROCLOR, Method: STANDARD PLATE inactive; negative | Test System: AMES SALMONELLA TYPHIMURIUM, Strain/Indicator: TA1535, Metabolic Activation: HAMSTER, LIVER, S-9, AROCLOR 1254, Method: PREINCUBATION inactive; negative | [5] inactive; negative | Test System: AMES SALMONELLA TYPHIMURIUM, Strain/Indicator: TA1535, Metabolic Activation: RAT, LIVER, S-9, AROCLOR 1254, Method: PREINCUBATION inactive; negative | Test System: AMES SALMONELLA TYPHIMURIUM, Strain/Indicator: TA1537, Metabolic Activation: HAMSTER, LIVER, S-9, AROCLOR 1254, Method: PREINCUBATION inactive; negative | [6] inactive; negative | Test System: AMES SALMONELLA TYPHIMURIUM, Strain/Indicator: TA1537, Metabolic Activation: RAT, LIVER, S-9, AROCLOR 1254, Method: PREINCUBATION inactive; negative | Test System: AMES SALMONELLA TYPHIMURIUM, Strain/Indicator: UTH8413, Metabolic Activation: NONE, Method: STANDARD PLATE inactive; negative | Test System: AMES SALMONELLA TYPHIMURIUM, Strain/Indicator: UTH8413, Metabolic Activation: RAT, LIVER, S-9, AROCLOR, Method: STANDARD PLATE inactive; negative | Test System: AMES SALMONELLA TYPHIMURIUM, Strain/Indicator: UTH8414, Metabolic Activation: NONE, Method: STANDARD PLATE inactive; negative | Test System: AMES SALMONELLA TYPHIMURIUM, Strain/Indicator: UTH8414, Metabolic Activation: RAT, LIVER, S-9, AROCLOR, Method: STANDARD PLATE inactive; negative

NC1CCC(CC2CCC(N)CC2)CC1 (centres undefined)
inactive: Test System: AMES SALMONELLA TYPHIMURIUM, Strain/Indicator: TA98, Metabolic Activation: HAMSTER, LIVER, S-9, AROCLOR 1254 (10%), Method: PREINCUBATION inactive; negative | [1] inactive; negative | Test System: AMES SALMONELLA TYPHIMURIUM, Strain/Indicator: TA98, Metabolic Activation: RAT, LIVER, S-9, AROCLOR 1254 (10%), Method: PREINCUBATION inactive; negative | Test System: AMES SALMONELLA TYPHIMURIUM, Strain/Indicator: TA100, Metabolic Activation: HAMSTER, LIVER, S-9, AROCLOR 1254 (10%), Method: PREINCUBATION inactive; negative | [3] inactive; negative | Test System: AMES SALMONELLA TYPHIMURIUM, Strain/Indicator: TA100, Metabolic Activation: RAT, LIVER, S-9, AROCLOR 1254 (10%), Method: PREINCUBATION inactive; negative | Test System: AMES SALMONELLA TYPHIMURIUM, Strain/Indicator: TA1535, Metabolic Activation: HAMSTER, LIVER, S-9, AROCLOR 1254 (10%), Method: PREINCUBATION inactive; negative | [5] inactive; negative | Test System: AMES SALMONELLA TYPHIMURIUM, Strain/Indicator: TA1535, Metabolic Activation: RAT, LIVER, S-9, AROCLOR 1254 (10%), Method: PREINCUBATION inactive; negative | Test System: AMES SALMONELLA TYPHIMURIUM, Strain/Indicator: TA1537, Metabolic Activation: HAMSTER, LIVER, S-9, AROCLOR 1254 (10%), Method: PREINCUBATION inactive; negative | [6] inactive; negative | Test System: AMES SALMONELLA TYPHIMURIUM, Strain/Indicator: TA1537, Metabolic Activation: RAT, LIVER, S-9, AROCLOR 1254 (10%), Method: PREINCUBATION inactive; negative

Oc1cc(Cl)c(O)cc1Cl
inactive: Test System: AMES SALMONELLA TYPHIMURIUM, Strain/Indicator: TA98, Metabolic Activation: NONE inactive; negative | Test System: AMES SALMONELLA TYPHIMURIUM, Strain/Indicator: TA98, Metabolic Activation: RAT, LIVER, S-9, AROCLOR 1254 inactive; negative | Test System: AMES SALMONELLA TYPHIMURIUM, Strain/Indicator: TA100, Metabolic Activation: NONE inactive; negative | Test System: AMES SALMONELLA TYPHIMURIUM, Strain/Indicator: TA100, Metabolic Activation: RAT, LIVER, S-9, AROCLOR 1254 inactive; negative | Test System: AMES SALMONELLA TYPHIMURIUM, Strain/Indicator: TA102, Metabolic Activation: NONE inactive; negative | Test System: AMES SALMONELLA TYPHIMURIUM, Strain/Indicator: TA102, Metabolic Activation: RAT, LIVER, S-9, AROCLOR 1254 inactive; negative | Test System: AMES SALMONELLA TYPHIMURIUM, Strain/Indicator: TA104, Metabolic Activation: NONE inactive; negative | Test System: AMES SALMONELLA TYPHIMURIUM, Strain/Indicator: TA104, Metabolic Activation: RAT, LIVER, S-9, AROCLOR 1254 inactive; negative

O=c1c(O[C@@H]2O[C@H](CO)[C@@H](O)[C@H](O)[C@H]2O)c(-c2ccc(O)c(O)c2)oc2cc(O)cc(O)c12
active: Test System: AMes Salmonella typhimurium, Strain/Indicator: TA98, Metabolic Activation: None, Method: Standard plate active; positive | Test System: Ames Salmonella typhimurium, Strain/Indicator: 98, Metabolic Activation: Rat, Liver, S-9, Aroclor 1254, Method: Standard plate active; positive | Test System: Ames Salmonella typhimurium, Strain/Indicator: TA100, Metabolic Activation: Rat, Liver, S-9, Aroclor 1254, Method: Standard plate active; positive
inactive: Test System: Ames Salmonella typhimurium, Strain/Indicator: TA100, Metabolic Activation: None, Method: Standard plate inactive; negative

CC(C)CN(N=O)C(N)=O
active: Test System: E. COLI B, Strain/Indicator: H/R30R, Metabolic Activation: NONE active; positive | Test System: E. COLI B, Strain/Indicator: HS30R, Metabolic Activation: NONE active; positive

CC(=O)ON(OC(C)C)C(=O)c1ccccc1
active: [4] active; positive | Test System: AMES SALMONELLA TYPHIMURIUM, Strain/Indicator: TA100, Metabolic Activation: RAT, S-9, AROCLOR, Method: STANDARD PLATE active; positive

CCCCCC(=O)Cc1cc(O)cc2c1C(=O)Oc1cc(O)c(C(=O)O)c(CCCCC)c1O2
inactive: [1] inactive; negative | [2] inactive; negative | Test System: AMES SALMONELLA TYPHIMURIUM, Strain/Indicator: TA98, Metabolic Activation: RAT, LIVER, S-9, Method: PREINCUBATION inactive; negative | Test System: AMES SALMONELLA TYPHIMURIUM, Strain/Indicator: TA98, Metabolic Activation: RAT, LIVER, S-9, Method: STANDARD PLATE inactive; negative | [3] inactive; negative | [4] inactive; negative | Test System: AMES SALMONELLA TYPHIMURIUM, Strain/Indicator: TA100, Metabolic Activation: RAT, LIVER, S-9, Method: PREINCUBATION inactive; negative | Test System: AMES SALMONELLA TYPHIMURIUM, Strain/Indicator: TA100, Metabolic Activation: RAT, LIVER, S-9, Method: STANDARD PLATE inactive; negative

Cc1nc2c(C)cc3c(nc(N)n3C)c2nc1C
active: Test System: AMES SALMONELLA TYPHIMURIUM, Strain/Indicator: TA98, Metabolic Activation: RAT, LIVER, S-9, AROCLOR 1254, Method: STANDARD PLATE active; positive

Reference: PubChem BioAssay AID1259407 (Chemical Carcinogenesis Research Information System (CCRIS), 2018)
